Measurements reported in publication PMC10304372, “T-705-Derived Prodrugs Show High Antiviral Efficacies against a Broad Range of Influenza A Viruses with Synergistic Effects When Combined with Oseltamivir” (Pharmaceutics, 2023).
Where two headings read alike, the source gives them in different places.

Experiments:
[1] = test system: MDCKII cells; conditions: for concentration from which considerable cell cytotoxicity was caused: dog
[2] = test system: A/Anhui/1/13 (H7N9); test: microbe, parasite or virus in culture; format: cell-based, influenza A virus; conditions: for IC50: read-out: IC50 H7N9
[3] = in vitro; conditions: dog
[4] = test system: A/Victoria/03/75 (H3N2); format: cell-based, influenza A virus
[5] = test system: A/Hamburg/NY1580/09 (H1N1); test: microbe, parasite or virus in culture; format: cell-based, influenza A virus; conditions: for IC50: read-out: IC50 H1N1
[6] = test system: A/Vietnam/1194/04 (H5N1); test: microbe, parasite or virus in culture; format: cell-based, influenza A virus; conditions: for IC90: read-out: IC90 (90% inhibitory effect on viral replication), H5N1
[7] = test system: H5N1 HPAIV; format: cell-based, influenza A virus
[8] = test system: RdRP subunit PA (polymerase acidic protein); conditions: cited from earlier work
[9] = Influenza A virus, H7N9, MDCK-II, 24 h
[10] = Influenza A virus, H1N1, MDCK-II, 24 h
[11] = Influenza A virus, H5N1, MDCK-II, 24 h, read-out: IC50 H5N1
[12] = Influenza A virus, H5N1, MDCK-II

Compound | concentration from which considerable cell cytotoxicity was caused [1] | SI (selectivity index) H7N9 [2] | IC50 [2, 9] | CC50 [3] | antiviral activity against H3N2 IAV (in words) [4] | SI (selectivity index) H1N1 [5] | IC50 [5, 10] | IC50 [5] | SI (selectivity index) H5N1 [6] | IC50 [6, 11] | IC50 ([6]; read-out: IC50 H5N1) | further results
CCCCCCCCCCCCCCC(=O)Oc1ccc(COP(=O)(OCc2ccc(OC(=O)CCCC)cc2)OP(=O)(O)OC[C@H]2O[C@@H](n3ccnc(C(N)=O)c3=O)[C@H](O)[C@@H]2O)cc1 (stereo partly drawn) [3b] | ≥ 30 µM | 158.2 | 620 nM | > 50000 nM | reduced viral titers to the limit of detection | 66.4 | 1490 nM | 1490 ± 2360 nM | 850.9 | 120 nM | 116 ± 13 nM | antiviral activity against H7N9 compared to 1a (comparable or fold reduced) [2]: comparable; reduction of H7N9 virus titers to the limit of detection (in words) [2]: to the limit of detection; IC50 [2]: 624 ± 1040 nM; reduction of H5N1 virus titers to the limit of detection (in words) [6]: to the limit of detection
CCCCCCCCCC(=O)Oc1ccc(COP(=O)(OCc2ccc(OC(=O)CCCCCCCCC)cc2)OP(=O)(O)OC[C@H]2O[C@@H](n3ccnc(C(N)=O)c3=O)[C@H](O)[C@@H]2O)cc1 [3a] | ≥ 30 µM | 1179.0 | 70 nM | > 50000 nM | reduced viral titers to the limit of detection | 643.9 | 130 ± 140 nM |  | 373.7 | 220 nM | 224 ± 230 nM | more active than 1a against H7N9 [2]: 10 fold; reduction of H7N9 virus titers to the limit of detection (in words) [2]: to the limit of detection; IC50 [2]: 71 ± 90 nM; interaction with oseltamivir against H5N1 (in words) [7]: strong synergistic effect; increase in antiviral activity compared to 1a (T-705), H1N1 [5]: 10 fold; IC1 (1% inhibitory effect on viral replication), H5N1 [6]: 0.0005 µM; IC10 (10% inhibitory effect on viral replication), H5N1 [6]: 13.2 nM; reduction of H5N1 virus titers to the limit of detection (in words) [6]: to the limit of detection; IC50 ([6]; Influenza A virus, H5N1, MDCK-II, read-out: IC50, H5N1, as used for combination treatment): 267 nM; IC90 [6, 12]: 5400 nM
NC(=O)c1nccn([C@@H]2O[C@H](CO)[C@@H](O)[C@H]2O)c1=O [2a, T-1106] |  |  |  |  | slightly higher activity compared to T-1105 1b |  |  |  |  |  |  | 
CCCCCCCCCC(=O)Oc1ccc(COP(=O)(OCc2ccc(OC(=O)CCCCCCCCC)cc2)OP(=O)(O)OP(=O)(O)OC[C@H]2O[C@@H](n3ccnc(C(N)=O)c3=O)[C@H](O)[C@@H]2O)cc1 [4a, T-1106-C9C9-TriPPPro] | ≥ 30 µM | 71.5 | 2020 ± 1230 nM | > 50000 nM | modest reduction in viral replication | 43.6 | 3320 nM | 3320 ± 4410 nM | 460.2 | 310 nM | 314 ± 380 nM | antiviral activity against H7N9 compared to 1a (comparable or fold reduced) [2]: 2.5 fold
CCOC(=O)C1=C[C@@H](OC(CC)CC)[C@H](NC(C)=O)[C@@H](N)C1 [oseltamivir] |  |  |  | > 100000 nM |  |  |  |  |  |  |  | IC1 (1% inhibitory effect on viral replication), H5N1 [6]: 0.00002 µM; IC10 (10% inhibitory effect on viral replication), H5N1 [6]: 0.5 nM; IC50 ([6]; Influenza A virus, H5N1, MDCK-II, 24 h, read-out: IC50 H5N1 (oseltamivir)): 8 nM; IC90 [6, 12]: 127 nM
NC(=O)c1nc(F)c[nH]c1=O [1a, T-705] |  |  | 790 ± 540 nM | > 50000 nM |  |  | 1290 nM | 1300 ± 1400 nM |  | 1140 nM | 1140 ± 1170 nM | effect on cell viability (in words) [1]: did not affect cell viability; reduction of virus replication [4]: approximately 1.5 logs
O=C1c2c(O)c(=O)ccn2N([C@@H]2c3ccccc3SCc3c2ccc(F)c3F)[C@@H]2COCCN12 [Baloxavir, baloxavir] |  |  |  |  |  |  |  |  |  |  |  | inhibitory activity on PA of various IAV subtypes incl. H5N1 and H7N9 (in words) [8]: pico- to nanomolar activity
NC(=O)c1ncc[nH]c1=O [1b, T-1105, reference compound] |  |  |  |  |  |  |  |  |  |  |  | reduction of virus replication [4]: approximately 1.5 logs
